According to patent publication US20100286145A1, “ISOPHTHALAMIDE DERIVATIVES INHIBITING BETA-SECRETASE ACTIVITY” (CoMentis, Inc., priority 2007, published 2010):

What follows are compounds tested against memapsin 2 (Homo sapiens, UniProt P56817) (assay: Inhibition of memapsin 2 beta-secretase activity (fluorogenic substrate FS-2)). Conditions: memapsin 2, pH 4, 37° C., 20 minutes pre-incubation; read-out: M2Ki.
Assay type: biochemical
Procedure: Potency of compounds were determined by measurement of their inhibition of memapsin 2 activity toward a fluorescent substrate. Kinetic inhibition experiments were performed using the procedure as described in Ermolieff, et al. (Biochemistry 39:12450-12456 (2000), the teachings of which are incorporated hereby in their entirety). Briefly, assays were performed at pH 4, 37° C., by pre-incubation of memapsin 2 enzyme with compound for 20 minutes. Activity measurements were initiated by addition of a fluorogenic substrate FS-2 (Bachem Americas, Torrance, Calif.) MCA-SEVNLDAEFR-DNP (SEQ ID NO.: 2). The substrate was derived from 10 amino acids of the human amyloid precursor protein (APP), with the Swedish variant amino acids at the beta-secretase cleavage site. The terminal amino acid was modified from arginine to lysine to facilitate derivatization with a functional group for detection by autofluorescence. The amino acid sequence of the “core” peptide of the substrate is SEVNLDAEFK (SEQ ID NO.: 3). The amino terminus was derivatized with (7-methoxycoumarin-4-yl)acetyl (MCA), and the epsilon amine of the lysine side chain of the terminal residue (K in sequence SEVNLDAEFK (SEQ ID NO.: 3)) was derivatized with 2,4-dinitorphenyl (DNP).
Fluorescent signal increase over time was measured as a rate of hydrolysis of the peptide substrate. Inhibition of hydrolytic rate was expressed relative to uninhibited controls and fit to a model for tight-binding inhibitors (J. Bieth, in “Proteinase Inhibitors,” Bayer Symposium V, 463-469, 1974, which is herein incorporated by reference for all purposes in its entirety).

memapsin 2, sequence (P56817 46-501): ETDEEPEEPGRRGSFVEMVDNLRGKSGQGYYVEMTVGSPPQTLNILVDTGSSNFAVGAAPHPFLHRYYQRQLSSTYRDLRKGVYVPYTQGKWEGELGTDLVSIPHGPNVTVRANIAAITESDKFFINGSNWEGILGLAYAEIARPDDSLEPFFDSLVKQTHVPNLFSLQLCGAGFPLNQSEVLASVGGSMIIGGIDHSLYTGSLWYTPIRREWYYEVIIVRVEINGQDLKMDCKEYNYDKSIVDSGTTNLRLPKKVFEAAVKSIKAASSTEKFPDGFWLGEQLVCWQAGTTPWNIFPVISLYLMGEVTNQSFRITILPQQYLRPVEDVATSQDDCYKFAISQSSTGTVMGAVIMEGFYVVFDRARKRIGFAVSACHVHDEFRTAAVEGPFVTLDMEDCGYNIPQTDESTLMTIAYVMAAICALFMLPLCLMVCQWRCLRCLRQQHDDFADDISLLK

SMILES | Ki [nM]
COCCn1ncc(CNC[C@@H](O)[C@H](Cc2ccccc2)NC(=O)c2cc(C(=O)N[C@H](C)c3ccccc3)cc(N(C)S(C)(=O)=O)c2)c1C [Compound 131, N1-((2S,3R)-3-hydroxy-4-((1-(2-methoxyethyl)-5-methyl-1H-pyrazol-4-yl)methylamino)-1-phenylbutan-2-yl)-5-(N-methylmethylsulfonamido)-N3-((R)-1-phenylethyl)isophthalamide] | < 300
Cc1csc(CN(C)C(=O)c2cccc(C(=O)N[C@@H](Cc3ccccc3)[C@H](O)CN(Cc3cnn(C)c3)Cc3cnn(C)c3)c2)n1 [Compound 156, N1-((2S,3R)-4-(bis((1-methyl-1H-pyrazol-4-yl)methyl)amino)-3-hydroxy-1-phenylbutan-2-yl)-N3-methyl-N3-((4-methylthiazol-2-yl)methyl)isophthalamide] | > 501
COc1cccc(CNC[C@@H](O)[C@H](Cc2ccccc2)NC(=O)c2cc(O)cc(C(=O)N(C)Cc3nc(C)cs3)c2)c1 [Compound 38, 5-hydroxy-N1-((2S,3R)-3-hydroxy-4-(3-methoxybenzylamino)-1-phenylbutan-2-yl)-N3-methyl-N3-((4-methylthiazol-2-yl)methyl)isophthalamide] | < 300
Cc1csc(CN(C)C(=O)c2cccc(C(=O)N[C@@H](Cc3ccccc3)[C@H](O)CNC(C)c3cccc(C(F)F)c3)c2)n1 (stereo partly drawn) [Compound 157, N1-((2S,3R)-4-(1-(3-(difluoromethyl)phenyl)ethylamino)-3-hydroxy-1-phenylbutan-2-yl)-N3-methyl-N3-((4-methylthiazol-2-yl)methyl)isophthalamide] | < 300
Cc1csc(CN(C)C(=O)c2cccc(C(=O)N[C@H](Cc3ccccc3)[C@@H](O)CNCc3cncc(C(C)C)c3)c2)n1 [Compound 128, N1-((2R,3S)-3-hydroxy-4-((5-isopropylpyridin-3-yl)methylamino)-1-phenylbutan-2-yl)-N3-methyl-N3-((4-methylthiazol-2-yl)methyl)isophthalamide] | > 501
Cc1csc(CN(C)C(=O)c2cccc(C(=O)N[C@@H](Cc3ccccc3)[C@H](O)CNCc3cccc(C(C)O)c3)c2)n1 (stereo partly drawn) [Compound 160, N1-((2S,3R)-3-hydroxy-4-(3-(1-hydroxyethyl)benzylamino)-1-phenylbutan-2-yl)-N3-methyl-N3-((4-methylthiazol-2-yl)methyl)isophthalamide] | < 300
COc1cccc(CNC[C@@H](O)[C@H](Cc2ccccc2)NC(=O)c2cccc(C(=O)Nc3nc(C)cs3)c2)c1 [Compound 80, N1-((2S,3R)-3-hydroxy-4-(3-methoxybenzylamino)-1-phenylbutan-2-yl)-N3-(4-methylthiazol-2-yl)isophthalamide] | > 501
CNc1cc(C(=O)N[C@@H](Cc2ccccc2)[C@H](O)CNCc2cccc(OC)c2)cc(C(=O)N(C)Cc2nc(C)cs2)c1 [Compound 76, N1-((2S,3R)-3-hydroxy-4-(3-methoxybenzylamino)-1-phenylbutan-2-yl)-N3-methyl-5-(methylamino)-N3-((4-methylthiazol-2-yl)methyl)isophthalamide] | < 300
COc1cccc(CNC[C@@H](O)[C@H](Cc2ccccc2)NC(=O)c2cccc(C(=O)N(C)Cc3cccc(C)n3)c2)c1 [Compound 108, N1-((2S,3R)-3-hydroxy-4-(3-methoxybenzylamino)-1-phenylbutan-2-yl)-N3-methyl-N3-((6-methylpyridin-2-yl)methyl)isophthalamide] | 301 to 500
C=C(C)c1cc(O)cc(CNC[C@@H](O)[C@H](Cc2ccccc2)NC(=O)c2cccc(C(=O)N(C)Cc3nc(C)cs3)c2)c1 [Compound 159, N1-((2S,3R)-3-hydroxy-4-(3-hydroxy-5-(prop-1-en-2-yl)benzylamino)-1-phenylbutan-2-yl)-N3-methyl-N3-((4-methylthiazol-2-yl)methyl)isophthalamide] | < 300
COC(=O)[C@@H]1COC(c2cc(C(=O)N[C@@H](Cc3ccccc3)[C@H](O)CNCc3cccc(OC)c3)cc(C(=O)N(C)Cc3nc(C)cs3)c2)=N1 [Compound 63, (S)-methyl 2-(3-((2S,3R)-3-hydroxy-4-(3-methoxybenzylamino)-1-phenylbutan-2-ylcarbamoyl)-5-(methyl((4-methylthiazol-2-yl)methyl)carbamoyl)phenyl)-4,5-dihydrooxazole-4-carboxylate] | > 501
COC(=O)c1coc(-c2cc(C(=O)N[C@@H](Cc3ccccc3)[C@H](O)CNCc3cccc(OC)c3)cc(C(=O)N(C)Cc3nc(C)cs3)c2)n1 [Compound 66, methyl 2-(3-((2S,3R)-3-hydroxy-4-(3-methoxybenzylamino)-1-phenylbutan-2-ylcarbamoyl)-5-(methyl((4-methylthiazol-2-yl)methyl)carbamoyl)phenyl)oxazole-4-carboxylate] | > 501
Cc1csc(CN(C)C(=O)c2cccc(C(=O)N[C@@H](Cc3ccccc3)[C@@H](O)CNCc3cncc(C(C)C)c3)c2)n1 [Compound 147, N1-((2S,3S)-3-hydroxy-4-((5-isopropylpyridin-3-yl)methylamino)-1-phenylbutan-2-yl)-N3-methyl-N3-((4-methylthiazol-2-yl)methyl)isophthalamide] | > 501

Same assay, conditions: memapsin 2, pH 4, 37° C., fluorogenic substrate FS-2; read-out: M2Ki

SMILES | Ki [nM]
CC(C)c1cncc(CNC[C@@H](O)[C@H](Cc2ccccc2)NC(=O)c2cccc(C(=O)N(C)Cc3nc(C(F)F)cs3)c2)c1 [Compound 285, N1-((4-(difluoromethyl)thiazol-2-yl)methyl)-N3-((2S,3R)-3-hydroxy-4-((5-isopropylpyridin-3-yl)methylamino)-1-phenylbutan-2-yl)-N1-methylisophthalamide] | < 300
COc1cccc(CNC[C@@H](O)[C@H](Cc2ccccc2)NC(=O)c2cc(C(=O)N(C)Cc3nc(C)cs3)cc(C3CCC(O)C3)c2)c1 (stereo partly drawn) [Compound 307, N1-((2S,3R)-3-hydroxy-4-(3-methoxybenzylamino)-1-phenylbutan-2-yl)-5-(3-hydroxycyclopentyl)-N3-methyl-N3-((4-methylthiazol-2-yl)methyl)isophthalamide] | > 501
Cc1csc(CN(C)C(=O)c2cccc(C(=O)N[C@@H](Cc3ccccc3)[C@H](O)CN(C)Cc3cncc(C(C)C)c3)c2)n1 [Compound 312, N1-((2S,3R)-3-hydroxy-4-(((5-isopropylpyridin-3-yl)methyl)(methyl)amino)-1-phenylbutan-2-yl)-N3-methyl-N3-((4-methylthiazol-2-yl)methyl)isophthalamide] | > 501
Cc1csc(CN(C)C(=O)c2cc(C(=O)N[C@@H](Cc3ccccc3)[C@H](O)CNCc3cccc(C(F)(F)F)c3)cc(-c3ncco3)c2)n1 [Compound 289, N1-((2S,3R)-3-hydroxy-1-phenyl-4-(3-(trifluoromethyl)benzylamino)butan-2-yl)-N3-methyl-N3-((4-methylthiazol-2-yl)methyl)-5-(oxazol-2-yl)isophthalamide] | < 300
Cc1csc(CN(C)C(=O)c2cc(C(=O)N[C@@H](Cc3ccccc3)[C@H](O)CNCc3cncc(C(C)C)c3)cc(-c3ccc(N(C)C)cc3)c2)n1 [Compound 298, 4′-(dimethylamino)-N3-((2S,3R)-3-hydroxy-4-((5-isopropylpyridin-3-yl)methylamino)-1-phenylbutan-2-yl)-N5-methyl-N5-((4-methylthiazol-2-yl)methyl)biphenyl-3,5-dicarboxamide] | < 300
Cc1csc(CN(C)C(=O)c2cc(C(=O)N[C@@H](Cc3ccccc3)[C@H](O)CNCc3cncc(C(C)C)c3)cc(-n3ccnc3)c2)n1 [Compound 300, N1-((2S,3R)-3-hydroxy-4-((5-isopropylpyridin-3-yl)methylamino)-1-phenylbutan-2-yl)-5-(1H-imidazol-1-yl)-N3-methyl-N3-((4-methylthiazol-2-yl)methyl)isophthalamide] | < 300
COc1cccc([C@H](C)NC[C@@H](O)[C@H](Cc2ccccc2)NC(=O)c2cc(C(=O)N(C)Cc3nc(C)cs3)cc(-c3ncco3)c2)c1 [Compound 292, N1-((2S,3R)-3-hydroxy-4-((S)-1-(3-methoxyphenyl)ethylamino)-1-phenylbutan-2-yl)-N3-methyl-N3-((4-methylthiazol-2-yl)methyl)-5-(oxazol-2-yl)isophthalamide] | < 300
Cc1csc(CN(C)C(=O)c2cc(C(=O)N[C@@H](Cc3ccccc3)[C@H](O)CNCc3cccc(C(F)(F)F)c3)cc(-c3cccc(N(C)C(=O)OC(C)(C)C)c3)c2)n1 [Compound 317, tert-butyl 3′-((2S,3R)-3-hydroxy-1-phenyl-4-(3-(trifluoromethyl)benzylamino)butan-2-ylcarbamoyl)-5′-(methyl((4-methylthiazol-2-yl)methyl)carbamoyl)biphenyl-3-yl(methyl)carbamate] | < 300
C=C(C)c1cncc(C(=O)NC[C@@H](O)[C@H](Cc2ccccc2)NC(=O)c2cccc(C(=O)N(C)Cc3nc(C)cs3)c2)c1 [Compound 288, N1-((2S,3R)-3-hydroxy-1-phenyl-4-(5-(prop-1-en-2-yl)nicotinamido)butan-2-yl)-N3-methyl-N3-((4-methylthiazol-2-yl)methyl)isophthalamide] | > 501
